Test results from patent US20180320177A1, “COMPOSITIONS AND METHODS FOR THE TREATMENT OF LIVER FIBROSIS” (UNIVERSITY OF CONNECTICUT, priority 2015, published 2018).
Entries after “also recorded” stand apart in the source; their conditions may differ.

What was measured:
[1] = tested on: CCl4-induced liver fibrosis; assay: CCl4-induced liver fibrosis model in mice (Masson Trichrome, ALT, gross morphology); format: in vivo, mouse
Protocol: Animal Care: All animal care and experimental procedures were approved by the Institutional Animal Care and Use Committee at the University of Connecticut. Shp^−/− mice were described previously. Hmgb2^−/− mice were obtained from Dr. Stella Tsirka at Stony Brook University. C57BL/6J mice were purchased from Jackson Laboratory. All mice were maintained on a 12-h light/dark cycle with free access to food and water unless otherwise indicated. For CCl4 treatment, CCl4 (Sigma) was dissolved in corn oil and administered to mice at a dose of 850 μl/kg BW by intraperitoneal injection (IP) twice a week for 6 or 10 weeks with or without ICM. Age-matched control mice were treated with a corn oil vehicle. For CCl4+ICM treatment, mice were treated with CCl4 for 2 weeks and then ICM (Department of Pharmaceutical Sciences at UConn) was dissolved in PEG (Sigma) and treated with mice (10 mg/kg) every day for 4 or 8 weeks in combination with CCl4. To induce overexpression of HMGB2 in liver, AAV8-Hmgb2 or a control AAV8-GFP was given to mice by tail vein injection at a dose of 5×10^10 GC. To knockdown HMGB2 in mouse livers, AAV-shHmgb2 or a control AAV-shGFP was delivered to mice at a dose of 2×10^10 GC by tail vein injection. One week later, mice injected with AAVs were treated with CCl4 or CCl4 +ICM as described above and sacrificed. Livers were removed and snap-frozen in liquid nitrogen for RNA and protein analysis. For the collection of mouse fetal livers, pregnant female mice were sacrificed at E12.5, E15, and E18.5 and livers were removed from the embryos. Additionally, post-natal mouse livers were harvested at postnatal day P1 and P60.
Histology: Livers were fixed in 10% neutral buffered formalin and embedded in paraffin. Liver blocks were cut at 5 μm and the sections were stained with hematoxylin and eosin (H&E) and Masson's trichrome according to standard procedures.
ALT and AST: Alanine transaminase (ALT) and Aspartate aminotransferase (AST) were measured by Infinity ALT (GPT) Liquid Stable Reagent and AST (GOT) Liquid Stable Reagent according to the manufacturer's instructions (Thermo Scientific).
For CCl4 treatment, CCl4 (Sigma) was dissolved in corn oil and administered to mice at a dose of 850 µl/kg BW by intraperitoneal injection (IP) twice a week for 6 or 10 weeks with or without ICM. Age-matched control mice were treated with a corn oil vehicle. For CCl4+ICM treatment, mice were treated with CCl4 for 2 weeks and then ICM (Department of Pharmaceutical Sciences at UConn) was dissolved in PEG (Sigma) and treated with mice (10 mg/kg) every day for 4 or 8 weeks in combination with CCl4. To induced overexpression of HMGB2 in liver, AAV8-Hmgb2 or a control AAV8-GFP was given to mice by tail vein injection at a dose of 5×10^10 GC. […]

HMGB2 = target: T1, HMGB2 (Homo sapiens, UniProt P26583); assay: Co-immunoprecipitation of acetylated / phosphorylated HMGB2 in LX-2 cells; format: cell-based; design: Total protein lysates were prepared from livers and cells in lysis buffer; endogenous in cells; host or cells: LX-2; details: CCl4 and ICM for 24 hours (FIG. 5D)
T1 sequence (P26583 1-209): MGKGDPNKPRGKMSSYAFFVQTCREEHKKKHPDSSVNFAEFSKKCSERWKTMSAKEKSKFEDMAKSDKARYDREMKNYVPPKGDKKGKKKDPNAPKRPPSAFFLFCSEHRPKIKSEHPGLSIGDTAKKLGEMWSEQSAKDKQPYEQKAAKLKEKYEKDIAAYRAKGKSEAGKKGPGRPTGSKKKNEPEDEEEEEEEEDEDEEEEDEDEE
Protocol: Co-immunoprecipitation experiments: LX-2 cells were transfected with a vector expressing HA-CBP with X-treineGENE™ transfection reagent (Sigma). 24 hours later, cells were treated with CCl4 and ICM for 24 hours. Cells then washed 2 times with cold phosphate buffered saline (PBS), lysed in buffer (50 mM Tris HCl, pH 7.4, 150 mM NaCl, 1 mM EDTA, and 1% TRITON X-1.00, and protease inhibitor). Protein extracts were incubated with anti-phosphoserin antibody or anti-acetylated lysin antibody (Cell signaling technology) overnight at 4° C. Protein A/G beads were added to the supernatants and incubated for 4 hours at 4° C. The beads were washed five times in NP-40 lysis buffer. Immune complexes were eluted by SDS—sample buffer, resolved on 10% SDS-PAGE and proceeded for immunoblotting with the indicated antibody.

`CC1(C)Oc2cc(O)ccc2C2C1=CCn1c(=O)n(-c3ccccc3)c(=O)n12` (stereo not drawn) [ICM, inflachromene] was tested, and the liver gross morphology ([1]; ICM 10 mg/kg i.p. daily for 4 wks (FIG. 16B)) was “improved liver gross morphology”, the “plasma ALT levels” value ([1]; ICM 10 mg/kg i.p. daily for 4 wks (FIG. 16C)) was “decreased plasma ALT levels” and the “serum ALT” value ([1]; ICM (FIG. 5B)) was “decreases”. The liver fibrosis ([1]; ICM in PEG 10 mg/kg i.p. daily for 4 wks, Masson Trichrome staining) was “decreases; also recorded: diminished liver fibrosis”, the “HMGB2 phosphorylation by CCl4” value (HMGB2) was “decreases” and the “HMGB2 acetylation by CBP/CCl4” value (HMGB2; HA-CBP) was “decreases”.
